Reference: patent US6779468B1, “Method and pharmaceutical composition for iron delivery in hemodialysis and peritoneal dialysis patients” (priority 1997, dated 2004)
Where “and” joins values, the source holds several entries; their conditions need not be identical. Equal values may be shown once. Entries after “also recorded” stand apart in the source; their conditions may differ.

What was measured:
[1] = literature reports; cited from earlier work
[2] = Phase I/II clinical study of dialysate iron in maintenance hemodialysis patients; format: in vivo, human; details: for reticulocyte hemoglobin (Retic-Hgb): month 2
Method: All subjects in the study were receiving maintenance hemodialysis for end stage kidney failure, and requiring erythropoietin and intravenous iron to maintain hemoglobin in the 10-12 gm/dl range. After obtaining an informed consent, patients were enrolled and oral iron was discontinued. All patients received maintenance intravenous iron (50-100 mg every 1-2 weeks) during a 4 week long pre-treatment phase. The last two weeks of this pre-treatment period were used to establish the “Baseline” serum iron and hematological parameters. In the Treatment Phase, ten patients were dialyzed with iron containing dialysate (Dialysate-Fe group) for a period of 4 months. […] Eleven control patients (IV-Fe Group) continued to receive 50-200 mg iron intravenously every 1-2 weeks, for the entire study period of 6.5 months.
The initial doses were 50 mg elemental iron weekly.
Increased availability of iron to marrow cells may improve responsiveness to erythropoietin, thereby raising the hemoglobin and hematocrit. Hemoglobin and hematocrit were monitored every week, and in the event of improved erythropoiesis, the doses of erythropoietin were reduced by 10% every two weeks or as needed, to maintain a stable hemoglobin.
According to the National Kidney Foundation-Dialysis Outcomes Quality Initiative (NKF-DOQI) recommendations, most hemodialysis patients should be administered intravenous iron with every dialysis session or every 1-2 weeks (maintenance therapy). […] This was the basis why the control group was maintained on regular doses of intravenous iron, while oral iron was discontinued. This being the standard of care, the subjects on maintenance intravenous iron (IV-Fe Group) served as the control against the experimental group receiving dialysate iron therapy (Dialysate-Fe Group).
A random number generator was used to generate a list of 24 numbers. Odd and even numbers were assigned A or B designation respectively. A list of 23 patients was created based on the order in which consent was obtained for participation in the study. Patients were assigned to groups A or B based on their order in the list.
When a relative iron deficiency was suspected bolus doses of 100-200 mg iron were administered intravenously with each dialysis, over 1-5 consecutive dialysis sessions.
Based on the NKF-DOQI guidelines, patients in IV-Fe group were prescribed maintenance amount of intravenous iron from 25 to 100 mg/week. When a relative iron deficiency was suspected, bolus doses of 100-200 mg iron were administered intravenously with each dialysis, over 5-10 consecutive dialysis sessions.
Except for plotting of individual patient variables over time, the iron study data has been summarized prior to analysis. Descriptive analysis was performed. Most of the analysis presented here, uses the data averaged over four or six/seven week intervals. A four week interval corresponds to the length of time each dose level was used during the dose escalation phase of the study. […] (See Figures 4-21)
The baseline period, labeled month 0, included data for the four weeks immediately prior to the start of the intervention. (There was some data available for some or all the fifth week prior to the intervention, but data from this week is omitted from the formal data analysis.)
Weeks 1 to 4, when the dialysate dose of 2 μg/dl was employed, are labeled month 1, weeks 5 to 8 labeled month 2, weeks 9 to 12 labeled ‘month 3’, weeks 13 to 16 labeled month 4, weeks 17 to 20 labeled month 5, and weeks 21 to 26 (or 27) are labeled month 6.

[3] = baseline, before treatment phase

In the case of `O=P([O-])([O-])OP(=O)([O-])[O-].[Sn+2].[Sn+2]` [stannous pyrophosphate], the “hypocalcemia / toxic effects” value [1] is listed as “hypocalcemia and immediate toxic effects”.
For Ferric pyrophosphate, the “TIBC adjusted for the baseline values, versus IV-Fe group” value ([2]; at 6 months, p<0.05) was “significantly higher”, the “serum ferritin (mean±S.D.)” value [2, 3] was 154 ± 120 µg/L and the “total iron binding capacity (TIBC, mean±S.D.)” value [2, 3] was 222.3 ± 43.8 µg/dL. For the same compound, the hematocrit cycling ([2]; dialysate route during every dialysis session) was “abolishes hematocrit cycling”, the “reticulocyte hemoglobin (Retic-Hgb)” value [2] was 28.4 ± 0.9 pg and the “average weekly dose of intravenous iron” value ([2]; month 6) was 8.9 mg. The “patients requiring additional intravenous iron supplements” value ([2]; month 6) was 2 out of the 10, the “serum ferritin (mean±S.D.)” value ([2]; month 6) was 154 ± 120 µg/L and the maintenance of hemoglobin ([2]; over a period of 6 months) was “maintains hemoglobin without an increase in erythropoietin requirement”. For the same compound, the “patients in whom iron balance is maintained without supplemental oral or intravenous iron” value ([2]; over a period of 6 months) was “approximately 80%”, the “reduction of requirements for intravenous iron” value ([2]; over a period of 6 months) was “about 80%” and the “average weekly dose of intravenous iron” value ([2]; pretreatment period (month 0, baseline), all patients on maintenance intravenous iron) was 68.7 mg. The “requirement for intravenous iron” value ([2]; p≦0.002 with 8-12 μg/dl dialysate iron) was “significantly reduced; also recorded: decline in intravenous iron requirement”, the “serum Fe and transferrin saturation” value (at 30 minutes of peritoneal dialysis, dialysate iron 500 μg/dl, day 21, P<0.03) was “significant increase” and the “time for mean serum iron and transferrin saturation to increase into the normal range” value (iron deficient rabbits, dialysate iron 500 μg/dl, day 21) was no more than 30 min. The “duration of increase in serum iron and transferrin saturation” value (peritoneal dialysis for a total of 2 hours) was “sustained for the duration of the experiment”.
With iron dextran [reference compound] the “serum ferritin (mean±S.D.)” value [2, 3] was 261 ± 211 µg/L, the “total iron binding capacity (TIBC, mean±S.D.)” value [2, 3] was 192.7 ± 48.1 µg/dL and the “reticulocyte hemoglobin (Retic-Hgb)” value [2] was 27.0 ± 1.0 pg. For the same compound, the “average weekly dose of intravenous iron” value ([2]; month 6) was 56.2 mg, the “serum ferritin (mean±S.D.)” value ([2]; month 6) was 261 ± 211 µg/L and the “average weekly dose of intravenous iron” value ([2]; pretreatment period (month 0, baseline), all patients on maintenance intravenous iron, listed as IV-Fe) was 59.6 mg and 68.7 mg.
